Source: US20260184707A1, “PHARMACEUTICAL COMPOUNDS FOR THE TREATMENT OF COMPLEMENT MEDIATED DISORDERS” (ALEXION PHARMACEUTICALS, INC., priority 2022, published 2026)

Each molecule was assayed against T1, Human complement C1s enzyme (Homo sapiens, UniProt P09871) (assay: Human C1s enzyme assay). Settings: human complement C1s enzyme 1.16 nM, substrate Z-L-Lys-SBzl, A405; read-out: IC50 (Stars).
T1 construct: purified from human serum, Complement Technology, Inc; purchased Complement Technology, Inc; host or cells: human serum (plasma-derived native protein)
T1 sequence (P09871 438-688 limits assumed): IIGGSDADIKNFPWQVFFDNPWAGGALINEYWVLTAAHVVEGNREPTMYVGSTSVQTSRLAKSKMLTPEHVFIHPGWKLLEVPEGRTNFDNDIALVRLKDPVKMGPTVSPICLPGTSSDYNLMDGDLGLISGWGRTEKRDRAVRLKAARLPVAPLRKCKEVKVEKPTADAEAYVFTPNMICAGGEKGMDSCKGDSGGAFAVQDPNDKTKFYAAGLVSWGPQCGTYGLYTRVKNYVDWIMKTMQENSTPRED
T1 sequence (P09871 16-437 partner limits assumed): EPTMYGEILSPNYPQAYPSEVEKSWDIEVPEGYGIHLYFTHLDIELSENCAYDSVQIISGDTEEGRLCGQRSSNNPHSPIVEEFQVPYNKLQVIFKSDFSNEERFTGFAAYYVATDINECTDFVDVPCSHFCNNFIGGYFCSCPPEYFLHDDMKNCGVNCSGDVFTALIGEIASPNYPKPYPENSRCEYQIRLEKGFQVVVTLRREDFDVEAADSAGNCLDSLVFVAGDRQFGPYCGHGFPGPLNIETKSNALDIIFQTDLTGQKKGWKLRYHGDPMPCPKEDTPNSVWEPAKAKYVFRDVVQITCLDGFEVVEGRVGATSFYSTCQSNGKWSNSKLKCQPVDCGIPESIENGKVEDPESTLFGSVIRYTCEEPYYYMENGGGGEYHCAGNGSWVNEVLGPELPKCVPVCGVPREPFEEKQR
Type: biochemical
In short: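 Serum-purified human C1s (1.16 nM final) preincubated 5 min at room temperature with compound in 50 mM Tris, 1 M NaCl, pH 7.5. Z-L-Lys-SBzl and DTNB added at 100 μM each; A405 recorded every 30 s. IC50 from nonlinear regression of reaction rates versus compound concentration.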

SMILES	IC50
C[C@@H](Nc1cnc(N2CCSCC2)n(CC(=O)NCc2cc3cnccc3[nH]2)c1=O)c1ccc2oc3ccccc3c2c1 [Compound 384, (R)-N-((1H-pyrrolo[3,2-c]pyridin-2-yl)methyl)-2-(5-((1-(dibenzo[b,d]furan-2-yl)ethyl)-amino)-6-oxo-2-thiomorpho-linopyrimidin-1(6H)-yl)acet-amide]	100 to 1000 nM
C[C@@H](Nc1nccn(CC(=O)NCc2cc3cnccc3[nH]2)c1=O)c1ccc2oc3ccccc3c2c1 [Compound 329, (R)-N-((1H-pyrrolo[3,2-c]pyridin-2-yl)methyl)-2-(3-((1-(dibenzo[b,d]furan-2-yl)ethyl)-amino)-2-oxopyrazin-1(2H)-yl)acetamide]	100 to 1000 nM
O=C(Cn1c(-c2ccccc2)ncc(Nc2ccc(-c3ccccc3)cc2)c1=O)NCc1cc2cnccc2[nH]1 [Compound 224, N-((1H-pyrrolo[3,2-c]pyridin-2-yl)methyl)-2-(5-([1,1′-biphenyl]-4-ylamino)-6-oxo-2-phenylpyrimidin-1(6H)-yl)-acetamide]	100 to 1000 nM
Cc1cnc(N[C@H](C)c2ccc3oc4ccccc4c3c2)c(=O)n1CC(=O)NCc1cc2cnccc2[nH]1 [Compound 349, (R)-N-((1H-pyrrolo[3,2-c]pyridin-2-yl)methyl)-2-(3-((1-(dibenzo[b,d]furan-2-yl)ethyl)-amino)-6-methyl-2-oxopyr-azin-1(2H)-yl)acetamide]	< 100 nM
C[C@H](Nc1cnc(N2CCCCC2)n(CC(=O)NCc2cc3cnccc3[nH]2)c1=O)c1ccc2oc3ccccc3c2c1 [Compound 284, (S)-N-((1H-pyrrolo[3,2-c]pyr-idin-2-yl)methyl)-2-(5-((1-(dibenzo[b,d]furan-2-yl)ethyl)-amino)-6-oxo-2-(piperidin-1-yl)pyrimidin-1(6H)-yl)acet-amide]	< 100 nM
O=C(Cn1c(-c2ccccc2)ncc(NCc2ccc(-c3ccccc3)cc2)c1=O)NCc1cc2cnccc2[nH]1 [Compound 19, N-((1H-pyrrolo[3,2-c]pyridin-2-yl)methyl)-2-(5-(([1,1′-biphenyl]-4-ylmethyl)amino)-6-oxo-2-phenylpyrimidin-1(6H)-yl)acetamide]	< 100 nM
C[C@@H](Nc1cn(C)c(=O)n(CC(=O)NCc2cc3cnccc3[nH]2)c1=O)c1ccc2oc3ccccc3c2c1 [Compound 366, (R)—N-((1H-pyrrolo[3,2-c]pyridine-2-yl)methyl)-2-(5-((1-(dibenzo[b,d]furan-2-yl)ethyl)amino)-3-methyl-2,6-dioxo-3,6-dihydropyrimidin-1(2H)-yl)acetamide]	> 1000 nM
C[C@@H](Nc1cnc(-c2cnn(C)c2)n(CC(=O)NCc2cc3cnccc3[nH]2)c1=O)c1ccc2oc3ccccc3c2c1 [Compound 328, (R)-N-((1H-pyrrolo[3,2-c]pyridin-2-yl)methyl)-2-(5-((1-(dibenzo[b,d]furan-2-yl)ethyl)-amino)-2-(1-methyl-1H-pyr-azol-4-yl)-6-oxopyrimidin-1(6H)-yl)acetamide]	< 100 nM

Now from value to molecule:

IC50	SMILES
< 100 nM	C[C@@H](Nc1cnc(C2=CCCCC2)n(CC(=O)NCc2cc3cnccc3[nH]2)c1=O)c1coc(-c2ccccc2)n1 [Compound 450, (R)-N-((1H-pyrrolo[3,2-c]pyridin-2-yl)methyl)-2-(2-(cyclohex-1-en-1-yl)-6-oxo-5-((1-(2-phenyloxazol-4-yl)-ethyl)amino)pyrimidin-1(6H)-yl)acetamide]
< 100 nM	O=C(Cn1c(-c2ccc(O[C@@H]3CO[C@H]4[C@@H]3OC[C@H]4O)cc2)ncc(NC(=O)c2ccc(-c3ccccc3)s2)c1=O)NCc1cc2cnccc2[nH]1 [Compound 264, N-(1-(2-(((1H-pyrrolo[3,2-c]pyridin-2-yl)methyl)amino)-2-oxoethyl)-2-(4-(((3R,3aR,6R, 6aR)-6-hydroxyhexahydrofuro [3,2-b]furan-3-yl)oxy)phenyl)-6-oxo-1,6-dihydropyrimidin-5-yl)-5-phenylthiophene-2-carboxamide]
< 100 nM	O=C(Cn1c(-c2ccccc2)ncc(NCc2nnc(-c3ccccc3)s2)c1=O)NCc1cc2cnccc2[nH]1 [Compound 454, N-((1H-pyrrolo[3,2-c]pyridin-2-yl)methyl)-2-(6-oxo-2-phen-yl-5-(((5-phenyl-1,3,4-thiadia-zol-2-yl)methyl)amino)pyr-imidin-1(6H)-yl)acetamide]
< 100 nM	C[C@H](Nc1cnc(N2CCn3c(nnc3C(F)(F)F)C2)n(CC(=O)NCc2cc3cnccc3[nH]2)c1=O)c1ccc2oc3ccccc3c2c1 [Compound 300, (S)—N-((1H-pyrrolo[3,2-c]pyridine-2-yl)methyl)-2-(5-((1-(dibenzo[b,d]furan-2-yl)ethyl)amino)-6-oxo-2-(3-(trifluoromethyl)-5,6-dihydro-[1,2,4]triazolo[4,3-a]pyrazin-7(8H)-yl)pyrimidin-1(6H)-yl)acetamide]
< 100 nM	O=C(Cn1c(-c2ccc(NC(=O)CO)cc2)ncc(NCc2ccc3oc4ccccc4c3c2)c1=O)NCc1cc2cnccc2[nH]1 [Compound 147, N-((1H-pyrrolo[3,2-c]pyridine-2-yl)methyl)-2-(5-((dibenzo[b,d]furan-2-ylmethyl)amino)-2-(4-(2-hydroxyacetamido)phenyl)-6-oxopyrimidin-1(6H)-yl)acetamide]
< 100 nM	O=C(Cn1c(-c2ccccc2)ncc(NCc2cc(-c3ccccc3)no2)c1=O)NCc1cc2cnccc2[nH]1 [Compound 457, N-((1H-pyrrolo[3,2-c]pyridin-2-yl)methyl)-2-(6-oxo-2-phen-yl-5-(((3-phenylisoxazol-5-yl)methyl)amino)pyrimidin-1(6H)-yl)acetamide]
< 100 nM	C[C@@H](Nc1cnc(C2=CCCCC2)n(CC(=O)NCc2cc3cnccc3[nH]2)c1=O)c1ccc2oc3ccccc3c2c1 [Compound 325, (R)-N-((1H-pyrrolo[3,2-c]pyr-idin-2-yl)methyl)-2-(2-(cyclo-hex-1-en-1-yl)-5-((1-(dibenzo [b,d]furan-2-yl)ethyl)amino)-6-oxopyrimidin-1(6H)-yl)acet-amide]
< 100 nM	C[C@H](Nc1cnc(-c2ccc(O[C@@H]3CO[C@H]4[C@@H]3OC[C@H]4O)cc2)n(CC(=O)NCc2cc3cnccc3[nH]2)c1=O)c1ccc2oc3ccccc3c2c1 [Compound 288, N-((1H-pyrrolo[3,2-c]pyridin-2-yl)methyl)-2-(5-(((S)-1-(dibenzo[b,d]furan-2-yl)ethyl)-amino)-2-(4-(((3R,3aR,6R, 6aR)-6-hydroxyhexahydrofuro [3,2-b]furan-3-yl)oxy)phenyl)-6-oxopyrimidin-1(6H)-yl)acet-amide]
< 100 nM	O=C(Cn1c(-c2ccc(OC3COC3)cc2)ncc(NCCCc2ccccc2)c1=O)NCc1cc2cnccc2[nH]1 [Compound 86, N-((1H-pyrrolo[3,2-c]pyridine-2-yl)methyl)-2-(2-(4-(oxetan-3-yloxy)phenyl)-6-oxo-5-((3-phenylpropyl)amino)pyrimidin-1(6H)-yl)acetamide]
